Data taken from ChEMBL document CHEMBL3870328, “Synthesis of novel Ral inhibitors: An in vitro and in vivo study” (Bioorg Med Chem Lett, 2016).
Blank lines part the entries; values can stand above or below the molecule they belong to.

How the values were obtained:
[1] = Cytotoxicity against human NCI-H2122 cells under anchorage-independent condition assessed as cell growth inhibition after 10 days by nitro blue tetrazolium-based microscopic analysis; assay type: functional; details: NCI-H2122, 240 h
[2] = Drug metabolism in CD1 mouse liver microsomes assessed as CYP450-mediated M7 metabolite formation at 16.7 uM up to 60 mins in presence of NADPH by LC-MS/MS analysis; assay type: ADME; details: 1 h
[3] = Plasma concentration in mouse xenografted with human NCI-H2122 cells at 50 mg/kg, ip after 3 hrs by LC-MS/MS analysis; assay type: ADME, organism-based
[4] = Drug metabolism in mouse xenografted with human NCI-H2122 cells assessed as M6 metabolite formation in heart at 50 mg/kg, ip after 3 hrs by LC-MS/MS analysis; assay type: ADME, organism-based; details: in vivo
[5] = Drug metabolism in mouse xenografted with human NCI-H2122 cells assessed as M6 metabolite formation in kidney at 50 mg/kg, ip after 3 hrs by LC-MS/MS analysis; assay type: ADME, organism-based; details: in vivo
[6] = Drug uptake in liver of mouse xenografted with human NCI-H2122 cells at 50 mg/kg, ip after 3 hrs by LC-MS/MS analysis; assay type: ADME, organism-based; details: read-out: Drug uptake
[7] = Drug metabolism in mouse xenografted with human NCI-H2122 cells assessed as M6 metabolite formation in plasma at 50 mg/kg, ip after 3 hrs by LC-MS/MS analysis; assay type: ADME, organism-based; details: in vivo
[8] = Drug metabolism in mouse xenografted with human NCI-H2122 cells assessed as M7 metabolite formation in plasma at 50 mg/kg, ip after 3 hrs by LC-MS/MS analysis; assay type: ADME, organism-based; details: in vivo
[9] = Drug uptake in lungs of mouse xenografted with human NCI-H2122 cells at 50 mg/kg, ip after 3 hrs by LC-MS/MS analysis; assay type: ADME, organism-based; details: lung, read-out: Drug uptake
[10] = Drug metabolism in mouse xenografted with human NCI-H2122 cells assessed as M7 metabolite formation in lungs at 50 mg/kg, ip after 3 hrs by LC-MS/MS analysis; assay type: ADME, organism-based, Lung; details: in vivo
[11] = Drug metabolism in mouse xenografted with human NCI-H2122 cells assessed as M7 metabolite formation in liver at 50 mg/kg, ip after 3 hrs by LC-MS/MS analysis; assay type: ADME, organism-based; details: in vivo
[12] = Drug metabolism in mouse xenografted with human NCI-H2122 cells assessed as M7 metabolite formation in tumor at 50 mg/kg, ip after 3 hrs by LC-MS/MS analysis; assay type: ADME, organism-based, Neoplasm; details: in vivo
[13] = Drug uptake in tumor of mouse xenografted with human NCI-H2122 cells at 50 mg/kg, ip after 3 hrs by LC-MS/MS analysis; assay type: ADME, organism-based, Neoplasm; details: read-out: Drug uptake
[14] = Drug metabolism in mouse xenografted with human NCI-H2122 cells assessed as M6 metabolite formation in lungs at 50 mg/kg, ip after 3 hrs by LC-MS/MS analysis; assay type: ADME, organism-based, Lung; details: in vivo
[15] = Drug metabolism in mouse xenografted with human NCI-H2122 cells assessed as M6 metabolite formation in liver at 50 mg/kg, ip after 3 hrs by LC-MS/MS analysis; assay type: ADME, organism-based; details: in vivo
[16] = Drug uptake in kidney of mouse xenografted with human NCI-H2122 cells at 50 mg/kg, ip after 3 hrs by LC-MS/MS analysis; assay type: ADME, organism-based; details: read-out: Drug uptake
[17] = Drug metabolism in mouse xenografted with human NCI-H2122 cells assessed as M7 metabolite formation in heart at 50 mg/kg, ip after 3 hrs by LC-MS/MS analysis; assay type: ADME, organism-based; details: in vivo
[18] = Drug uptake in heart of mouse xenografted with human NCI-H2122 cells at 50 mg/kg, ip after 3 hrs by LC-MS/MS analysis; assay type: ADME, organism-based; details: read-out: Drug uptake
[19] = Drug metabolism in mouse xenografted with human NCI-H2122 cells assessed as M7 metabolite formation in brain at 50 mg/kg, ip after 3 hrs by LC-MS/MS analysis; assay type: ADME, organism-based; details: in vivo
[20] = Drug uptake in brain of mouse xenografted with human NCI-H2122 cells at 50 mg/kg, ip after 3 hrs by LC-MS/MS analysis; assay type: ADME, organism-based; details: read-out: Drug uptake
[21] = Drug metabolism in mouse xenografted with human NCI-H2122 cells assessed as M7 metabolite formation in kidney at 50 mg/kg, ip after 3 hrs by LC-MS/MS analysis; assay type: ADME, organism-based; details: in vivo
[22] = Drug metabolism in mouse xenografted with human NCI-H2122 cells assessed as M6 metabolite formation in tumor at 50 mg/kg, ip after 3 hrs by LC-MS/MS analysis; assay type: ADME, organism-based, Neoplasm; details: in vivo
[23] = Drug metabolism in CD1 mouse liver microsomes assessed as CYP450-mediated M6 metabolite formation at 16.7 uM up to 60 mins in presence of NADPH by LC-MS/MS analysis; assay type: ADME; details: 1 h
[24] = target: T1, Ras-related protein Ral-A (Homo sapiens) (UniProt P11233); assay: Inhibition of RalA activity in human H2122 spheroids after 4 hrs by RalBP1 pull down assay
T1 sequence (whole entry): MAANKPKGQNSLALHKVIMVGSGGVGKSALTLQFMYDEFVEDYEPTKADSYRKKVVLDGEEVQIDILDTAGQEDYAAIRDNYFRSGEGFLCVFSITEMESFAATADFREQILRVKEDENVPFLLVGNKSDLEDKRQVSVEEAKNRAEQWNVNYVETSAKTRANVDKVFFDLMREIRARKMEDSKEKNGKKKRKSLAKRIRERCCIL

[25] = target: T2, Ras-related protein Ral-B (Homo sapiens) (UniProt P11234); assay: Inhibition of RalB activity in human H2122 spheroids after 4 hrs by RalBP1 pull down assay
T2 sequence (whole entry): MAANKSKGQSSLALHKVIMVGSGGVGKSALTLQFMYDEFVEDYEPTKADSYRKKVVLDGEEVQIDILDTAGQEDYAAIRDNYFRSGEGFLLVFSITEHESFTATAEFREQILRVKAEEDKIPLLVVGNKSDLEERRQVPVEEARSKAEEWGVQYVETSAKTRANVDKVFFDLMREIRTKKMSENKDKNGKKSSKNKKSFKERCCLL

[26] = Half life in ip dosed mouse plasma; assay type: ADME, organism-based

Compound: Cc1nn(C)c2c1C(c1ccc(C(C)C)cc1)C(C#N)=C(N)O2 (centres undefined)
IC50 [1]: 4 µM

Compound: COc1ccc(C2C(C#N)=C(N)Oc3c2c(-c2ccccc2)nn3-c2ccccc2)cc1 (centres undefined)
IC50 [1]: 3.1 µM

Compound: Cc1nn(C)c2c1C(c1ccc(OC(F)(F)F)cc1)C(C#N)=C(N)O2 (centres undefined)
IC50 [1]: 2.9 µM

Compound: COc1ccc(-c2nn(-c3ccccc3)c3c2C(c2ccccc2)C(C#N)=C(N)O3)cc1 (centres undefined)
IC50 [1]: 7.2 µM

Drug metabolism [2]: Metabolite_Detected
concentration at 3 h [3]: 3950 ng/mL
Drug metabolism [4]: 52.8 ng/g
Drug metabolism [5]: 350.6 ng/g
concentration at 3 h [6]: 11500 ng/g
Drug metabolism [7]: 147.5 ng/mL
Drug metabolism [8]: 656.2 ng/mL
concentration at 3 h [9]: 3180 ng/g
Drug metabolism [10]: 487.4 ng/g
Drug metabolism [11]: 2822.9 ng/g
Drug metabolism [12]: 413 ng/g
concentration at 3 h [13]: 4170 ng/g
Drug metabolism [14]: 47.7 ng/g
Drug metabolism [15]: 2531.5 ng/g
concentration at 3 h [16]: 5730 ng/g
Drug metabolism [17]: 472.6 ng/g
concentration at 3 h [18]: 3540 ng/g
Drug metabolism [19]: 17 ng/g
concentration at 3 h [20]: 210 ng/g
Drug metabolism [21]: 839.9 ng/g
Drug metabolism [22]: 145.5 ng/g
Drug metabolism [23]: Metabolite_Detected
Compound: CCCCC(=O)C1c2ccccc2NC2=C(C(=O)CCC2)C1c1ccccc1Cl (centres undefined)

Compound: COc1ccc(-c2nn(C)c3c2C(c2ccc(F)cc2)C(C#N)=C(N)O3)cc1OC (centres undefined)
IC50 [1]: > 10 µM

concentration at 3 h [3]: 5640 ng/mL
concentration at 3 h [6]: 4070 ng/g
inhibition [24]: Dose-dependent effect
concentration at 3 h [9]: 1870 ng/g
inhibition [25]: Dose-dependent effect
concentration at 3 h [13]: 1220 ng/g
concentration at 3 h [16]: 2400 ng/g
concentration at 3 h [18]: 2080 ng/g
half-life [26]: < 1.5 h
concentration at 3 h [20]: 1390 ng/g
Compound: Cc1nn(C)c2c1C(c1ccc(C(F)(F)F)cc1)C(C#N)=C(N)O2 (centres undefined)
IC50 [1]: 2.2 µM

Compound: Cc1nn(-c2ccccc2)c2c1C(c1ccc(F)cc1)C(C#N)=C(N)O2 (centres undefined)
IC50 [1]: 6.6 µM

Compound: COc1cc(OC)c(C2C(C#N)=C(N)Oc3c2c(C)nn3C)c(OC)c1 (centres undefined)
IC50 [1]: 1.6 µM

Compound: N#CC1=C(N)Oc2c(c(-c3ccccc3)nn2-c2ccccc2)C1c1ccc(F)cc1 (centres undefined)
IC50 [1]: 4.1 µM

Compound: Cn1nc(-c2ccccc2)c2c1OC(N)=C(C#N)C2c1ccc(OC(F)(F)F)cc1 (centres undefined)
IC50 [1]: 5.5 µM

Compound: Cn1nc(-c2ccccc2)c2c1OC(N)=C(C#N)C2c1ccncc1 (centres undefined)
IC50 [1]: 5.2 µM

Compound: Cn1nc(-c2ccccc2)c2c1OC(N)=C(C#N)C2c1cccnc1 (centres undefined)
IC50 [1]: > 10 µM

Compound: Cc1nn(C)c2c1C(c1ccc3c(c1)OCCO3)C(C#N)=C(N)O2 (centres undefined)
IC50 [1]: 8.6 µM

Compound: COc1ccc(-c2nn(C)c3c2C(c2ccccc2)C(C#N)=C(N)O3)cc1OC (centres undefined)
IC50 [1]: > 10 µM

Compound: Cn1nc(-c2ccccc2)c2c1OC(N)=C(C#N)C2c1cc(F)cc(F)c1 (centres undefined)
IC50 [1]: 6.6 µM

Compound: Cc1nn(C)c2c1C(c1ccc(F)cc1)C(C#N)=C(N)O2 (centres undefined)
IC50 [1]: > 10 µM

Compound: COc1ccc(-c2nn(-c3ccccc3)c3c2C(c2ccc(F)cc2)C(C#N)=C(N)O3)cc1OC (centres undefined)
IC50 [1]: 7.6 µM

Compound: COc1ccc(-c2nn(C)c3c2C(c2ccc(OC)cc2)C(C#N)=C(N)O3)cc1 (centres undefined)
IC50 [1]: > 10 µM

Compound: Cc1nn(-c2ccccc2)c2c1C(c1ccccc1)C(C#N)=C(N)O2 (centres undefined)
IC50 [1]: 2.7 µM

Compound: Cn1nc(-c2ccccc2)c2c1OC(N)=C(C#N)C2c1ccccc1 (centres undefined)
IC50 [1]: > 10 µM

Compound: COc1ccc(-c2nn(C)c3c2C(c2ccccc2)C(C#N)=C(N)O3)cc1 (centres undefined)
IC50 [1]: > 10 µM

Compound: Cc1nn(C)c2c1C(c1cc(F)cc(F)c1)C(C#N)=C(N)O2 (centres undefined)
IC50 [1]: 4.2 µM
